Measurements taken from patent US20220193047A1, “METHODS OF ENHANCING RADIOTHERAPY USING FERROPTOSIS INDUCERS AS RADIOSENSITIZERS” (THE TRUSTEES OF COLUMBIA UNIVERSITY IN THE CITY OF NEW YORK, priority 2019, published 2022).
* marks the point of attachment. Cbz = O=C(OCc1ccccc1)*; CH2F = FC*

Tests used:
HT-1080 cells [1] = assay: Cell Titer Glo cell viability assay with radiation; format: cell-based; details: for Cell viability after radiation (ATP-based luciferase assay): HT-1080, 4 Gy radiation for 24 h
Experimental: HT-1080 cells were plated at 1,000 cells per well in white 96-well plates (100 uL per well) in technical duplicates. The cells were then treated with vehicle (DMSO), Ferrostatin-1, DFO, Z-VAD-FMK or Necrostatin-1S and incubated overnight. […] After another 24 h, 100 uL of 50% Cell Titer Glo (Promega) 50% cell culture medium was added to each well and incubated at room temperature with shaking for 15 min. Luminescence was measured using a Victor X5 plate reader (PerkinElmer). Experiments were performed three independent times with different passages for each cell line.

HT-1080 cells [2] = assay: Clonogenic assay with Cs-137 gamma radiation, HT-1080; format: cell-based; design: key to CDI with radiation: CDI = AB/(A×B) of surviving fractions; <1 synergy; details: for Colony formation after radiation alone: HT-1080, 2 or 4 Gy radiation, no ferroptosis inducer; for Enhancement of radiation effect on clonogenic survival: HT-1080, cell death inducer plus radiation; for CDI with 4 Gy IR / CDI with 2 Gy IR: HT-1080 cells, CDI<1 synergy; for CDI with 2 Gy IR: inducer concentration (300 nM IKE, 20 nM RSL3, 1 nM staurosporine, 2 nM doxorubicin, 300 nM rapamycin, 100 ng/mL TNF + 20 μM Z-VAD-FMK + 300 nM birinapant); for CDI with radiation: 5 μM sorafenib, HT-1080
Experimental: 500 cells were seeded per well in 6-well plates in their respective growth media and incubated overnight. The next day, cells were co-treated with DMSO or compounds and radiation using a Gammacell 40 Caesium-137 irradiator (Theratronics). Plates were monitored every day using a light microscope for formation of colonies in the DMSO-treated wells. When colonies of >50 cells are clearly visible, the growth medium was discarded from all plates. The cells were washed with PBS, then fixed and stained with crystal violet solution (0.05% crystal violet, 1% formaldehyde, 1% methanol in PBS). Colonies were then directly visualized and counted.
We tested their ability to prevent clonogenic growth, along with DMSO-treated controls.
The coefficient of drug interaction (CDI), used to compute interaction between two drugs, was used to quantify synergy between cell death inducers and radiation according to the formula CDI=AB/(A×B), where AB is the surviving fraction of the combination treatment, and A and B are the surviving fractions of the individual treatments.

[3] = system: reduced glutathione (GSH) in HT-1080 cells; assay: Reduced glutathione measurement in cells; format: cell-based; details: HT-1080, 6 Gy radiation for 24 hours, vs DMSO, sorafenib alone or radiation alone
Experimental: Cystine taken up by system xc^− is reduced to cysteine, a building block in the biosynthesis of glutathione. […] Using a fluorometric GSH probe, we observed that treatment with 2 or 6 Gy radiation for 24 hours depleted GSH in a dose-dependent manner in HT-1080 cells (FIG. 2E). […] Indeed, the decrease in colony formation of HT-1080 cells following 2 or 4 Gy radiation was rescued by either glutathione methyl ester or N-acetylcysteine, which is a biological precursor to glutathione (FIG. 9).

[4] = system: TM00219 patient-derived xenograft tumors; assay: Patient-derived xenograft study in mice (TM00219 lung adenocarcinoma); format: in vivo; details: 40 mg/kg i.p. daily for 14 days, NSG mice
Experimental: The experiment was conducted according to the same protocol as the HT-1080 tumor xenograft study, with the exception that a single dose of radiation (sham or 6 Gy) was delivered to the tumor on day 1 of the experiment.
Finally, the effect of ferroptosis-inducing system xc^− inhibitors, in combination with radiation, was tested on a patient-derived xenograft (PDX) model of lung adenocarcinoma, which is another type of cancer commonly treated with radiation therapy. NSG mice engrafted with a human lung adenocarcinoma tumor (TM00219) were evaluated.

[5] = system: GSH in HT-1080 xenograft tumors; assay: Reduced glutathione in xenograft tumor tissue
Experimental: The cell pellet was resuspended in 100 μl of RIPA buffer and homogenized by pipetting. The lysate was centrifuged at 16,700×g at 4° C. for 15 min, and cleared lysate was used to determine the amount of GSH in the sample. We used the GSH/GSSG ratio detection assay kit (Abcam, #ab138881) and followed the product instructions to determine GSH levels.
The injections were repeated daily for 14 days. […] Tumor size was measured daily using calipers and mouse weight was measured daily. The animal protocols containing all the procedures were approved by Columbia University's IACUC.

HT-1080 xenograft tumors = assay: HT-1080 tumor xenograft study in mice; details: 40 mg/kg i.p. daily for 14 days
Experimental: The injections were repeated daily for 14 days. […] For the sorafenib experiment, the formulation used was 40 mg/kg sorafenib in 5% DMSO, 20% ethanol in water containing 30% w/v cyclodextrin. […] Tumor size was measured daily using calipers and mouse weight was measured daily.
The efficacy of the combined treatment regimen of radiation and ferroptosis inducer was evaluated in an in vivo tumor model. […] Athymic nude mice were implanted with subcutaneous HT-1080 fibrosarcoma cells to form xenograft tumors.

cleaved caspase-3 = assay: Western blot of cleaved caspase-3; format: cell-based
Experimental: 1 million cells were seeded in 10 cm dishes and treated with compounds and/or radiation on the next day. […] After quantification by Bradford, samples were mixed with 5×SDS loading buffer and separated by SDS-polyacrylamide gel electrophoresis. After transfer, membranes were blocked for 10 min in Tris-buffered saline (pH 7.4) with 1% Tween-20 (TBS-T) with 5% milk and incubated in primary antibody overnight at 4° C. Following 3× for 5 min washes in TBS-T, the membrane was incubated with secondary antibodies for 1 hr. The membrane was washed again in TBST 3× for 5 min prior to visualization using enhanced chemiluminescence (ECL Western Blotting Substrate, Pierce). Antibody for cleaved caspase 3 (Cell Signaling Technology, #9661) was used at 1:1000 and detected using a Peroxidase AffiniPure Goat Anti-Rabbit IgG (H+L) (Jackson ImmunoResearch, 111-295-144) at 1:5000 dilution.
DNA damage is a potent inducer of apoptosis. […] Despite this, some quantity of 17-kDa cleaved caspase-3 was still detectable in the Z-VAD-FMK-treated sample. To further check for potential radiation-induced apoptosis in this model at a later time point, we attempted to rescue the effects of radiation using 100 μM Z-VAD-FMK after 48, 72, and 96 h (FIG. 10).

[6] = system: models of glioma, melanoma, and breast cancer; details: Cobler et al., 2018, Nagane et al., Sleire et al., 2015; cited from earlier work

Cn1cnc(N)c2ncnc1-2 [3-methyladenine]
Cell viability after radiation (ATP-based luciferase assay) (HT-1080 cells [1]): also rescued cells

CC(=O)N[C@@H](CS)C(=O)O [N-acetylcysteine]
Colony formation after radiation alone (HT-1080 cells [2]): rescued

COc1cccc2c1C(=O)c1c(O)c3c(c(O)c1C2=O)C[C@@](O)(C(=O)CO)C[C@@H]3O[C@H]1C[C@H](N)[C@H](O)[C@H](C)O1 [doxorubicin]
Enhancement of radiation effect on clonogenic survival (HT-1080 cells [2]): only slightly enhancing radiation-induced cell death | CDI with 4 Gy IR (HT-1080 cells [2]): 0.9 | CDI with 2 Gy IR (HT-1080 cells [2]): 1.07

COC(=O)CNC(=O)[C@H](CS)NC(=O)CC[C@H](N)C(=O)O [glutathione methyl ester]
Colony formation after radiation alone (HT-1080 cells [2]): rescued

CN1C(=O)NC(Cc2c[nH]c3c(Cl)cccc23)C1=O (stereo not drawn) [necrostatin-1S]
Cell viability after radiation (ATP-based luciferase assay) (HT-1080 cells [1]): not

CO[C@H]1C[C@@H]2CC[C@@H](C)[C@@](O)(O2)C(=O)C(=O)N2CCCC[C@H]2C(=O)O[C@H]([C@H](C)C[C@@H]2CC[C@@H](O)[C@H](OC)C2)CC(=O)[C@H](C)/C=C(\C)[C@@H](O)[C@@H](OC)C(=O)[C@H](C)C[C@H](C)/C=C/C=C/C=C/1C [rapamycin]
CDI with 4 Gy IR (HT-1080 cells [2]): 0.62 | CDI with 2 Gy IR (HT-1080 cells [2]): 0.89

CNC(=O)c1cc(Oc2ccc(NC(=O)Nc3ccc(Cl)c(C(F)(F)F)c3)cc2)ccn1 [sorafenib]
Levels of GSH, sorafenib plus radiation [3]: significant depletion of GSH | Tumor growth, combination with radiation vs all other groups ([4]; 6 Gy on day one): significant tumor growth inhibition | Tumor growth, drug alone vs vehicle only [4]: significant tumor control | GSH in tumor tissue, sorafenib vs vehicle ([5]; 40 mg/kg sorafenib i.p. 14 days): significantly lower GSH | GSH in tumor tissue, dual-treated ([5]; 40 mg/kg sorafenib i.p. 14 days plus 6 Gy on days 1 and 3): further significant GSH depletion | CDI with radiation (HT-1080 cells [2]; 2 Gy): 0.65 | CDI with radiation (HT-1080 cells [2]; 4 Gy): 0.47 | Tumor volume, sorafenib alone vs control (HT-1080 xenograft tumors): No difference was observed

CN[C@@H]1C[C@H]2O[C@@](C)([C@@H]1OC)n1c3ccccc3c3c4c(c5c6ccccc6n2c5c31)C(=O)NC4 [staurosporine]
Enhancement of radiation effect on clonogenic survival (HT-1080 cells [2]): only slightly enhancing radiation-induced cell death | CDI with 4 Gy IR (HT-1080 cells [2]): 0.83 | CDI with 2 Gy IR (HT-1080 cells [2]): 1.1 | Cleavage of caspase-3, compound alone (cleaved caspase-3; HT-1080, IKE or RSL3 24 h, staurosporine 500 nM for 6 h): induced cell death along with levels of caspase-3 cleavage

O=C(O)c1cc(/N=N/c2ccc(S(=O)(=O)Nc3ccccn3)cc2)ccc1O [sulfasalazine]
Potentiation of radiation (prior reports) [6]: potentiate radiation

Cc1c(C)c2c(c(C)c1O)CCC(C)(C(=O)O)O2 (stereo not drawn) [trolox]
Colony formation after radiation alone (HT-1080 cells [2]): partially rescued cell death induced by radiation alone | Synergy between IKE or RSL3 and radiation in colony formation (HT-1080 cells [2]; HT-1080, co-treatment with ferroptosis inhibitor): suppress the synergy

Cbz-Val-Ala-Asp-CH2F
Rescue of cell viability after radiation at later time points (HT-1080 cells [1]; HT-1080, 100 μM Z-VAD-FMK, 48, 72, and 96 h): no significant rescue of cell viability | Cell viability after radiation (ATP-based luciferase assay) (HT-1080 cells [1]): not | Staurosporine-induced cell death (cleaved caspase-3; HT-1080, 500 nM staurosporine plus 100 μM Z-VAD-FMK): rescued from staurosporine-induced cell death
